Data reported in US9725445B2, “Cycloalkyl nitrile pyrazolo pyridones as Janus kinase inhibitors” (Merck Sharp & Dohme Corp., priority 2013, dated 2017).

How the values were obtained:
[1] = biological target: JAK1 (Homo sapiens (Human), UniProt P23458); experiment: Jak biochemical HTRF assay, JAK1; settings: HTRF biochemical assay, recombinant GST-tagged catalytic domain; read-out: JAK1 IC50
[2] = biological target: JAK2 (Homo sapiens (Human), UniProt O60674); experiment: Jak biochemical HTRF assay, JAK2; settings: HTRF biochemical assay, recombinant GST-tagged catalytic domain; read-out: JAK2 IC50
Chain of JAK2 (O60674 849-1124): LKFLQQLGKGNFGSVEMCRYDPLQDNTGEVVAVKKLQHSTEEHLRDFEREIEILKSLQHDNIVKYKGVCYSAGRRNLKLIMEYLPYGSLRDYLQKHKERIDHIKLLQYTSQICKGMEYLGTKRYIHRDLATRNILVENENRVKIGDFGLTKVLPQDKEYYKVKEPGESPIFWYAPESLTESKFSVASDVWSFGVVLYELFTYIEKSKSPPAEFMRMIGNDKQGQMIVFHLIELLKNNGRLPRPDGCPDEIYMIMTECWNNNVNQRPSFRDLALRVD

Chain of JAK1 (P23458 875-1153): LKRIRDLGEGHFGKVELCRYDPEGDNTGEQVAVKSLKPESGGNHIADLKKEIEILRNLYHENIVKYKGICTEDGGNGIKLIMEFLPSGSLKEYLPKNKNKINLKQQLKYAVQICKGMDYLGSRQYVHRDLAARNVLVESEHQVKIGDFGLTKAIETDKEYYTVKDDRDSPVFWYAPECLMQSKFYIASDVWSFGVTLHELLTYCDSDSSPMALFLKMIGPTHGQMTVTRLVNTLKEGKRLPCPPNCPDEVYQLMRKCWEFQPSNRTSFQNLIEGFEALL

N#C[C@H]1CCCC[C@@H]1n1nc(Nc2ccc3c(c2)CN(CC(F)(F)F)C3)c2c(=O)[nH]ccc21 [Example 3-61, (1S,2S)-2-(4-oxo-3-{[2-(2,2,2-trifluoroethyl)-2,3-dihydro-1H-isoindol-5-yl]amino}-4,5-dihydro-1H-pyrazolo[4,3-c]pyridin-1-yl}cyclohexanecarbonitrile]
IC50 [1]: 0.55 nM
IC50 [2]: 1.1 nM

Cn1ccc(NC(=O)Cc2cccc(Nc3nn([C@@H]4CCCC[C@H]4C#N)c4cc[nH]c(=O)c34)c2)n1 [Example 3-15, 2-[3-({1-[(1R,2R)-2-cyanocyclohexyl]-4-oxo-4,5-dihydro-1H-pyrazolo[4,3-c]pyridin-3-yl}amino)phenyl]-N-(1-methyl-1H-pyrazol-3-yl)acetamide]
IC50 [1]: 14 nM
IC50 [2]: 30 nM

N#C[C@H]1CCCC[C@@H]1n1nc(Nc2ccc(CN)cc2)c2c(=O)[nH]ccc21 [Example 6-5, (1S,2S)-2-(3-((4-(aminomethyl)phenyl)amino)-4-oxo-4,5-dihydro-1H-pyrazolo[4,3-c]pyridin-1-yl)cyclohexanecarbonitrile]
IC50 [1]: 0.46 nM
IC50 [2]: 0.82 nM

COCC(C)(C)CN1Cc2cc(Nc3nn([C@H]4CCCC[C@@H]4C#N)c4cc[nH]c(=O)c34)ccc2S1(=O)=O [Example 3-159, (1S,2S)-2-(3-((2-(3-methoxy-2,2-dimethylpropyl)-1,1-dioxido-2,3-dihydrobenzo[d]isothiazol-5-yl)amino)-4-oxo-4,5-dihydro-1H-pyrazolo[4,3-c]pyridin-1-yl)cyclohexanecarbonitrile]
IC50 [1]: 0.059 nM
IC50 [2]: 0.44 nM

C[C@@H](NCC(F)(F)F)c1ccc(Nc2nn([C@H]3CCCC[C@@H]3C#N)c3cc[nH]c(=O)c23)cc1 [Example 3-66, (1S,2S)-2-{4-oxo-3-[(4-{(1R)-1-[(2,2,2-trifluoroethyl)amino]ethyl}phenyl)amino]-4,5-dihydro-1H-pyrazolo[4,3-c]pyridin-1-yl}cyclohexanecarbonitrile]
IC50 [1]: 0.2 nM
IC50 [2]: 0.32 nM

CC(C)N1Cc2cc(Nc3nn([C@H]4CCCC[C@@H]4C#N)c4cc[nH]c(=O)c34)ccc2C1C (single isomer, unassigned) [Example 19-2, (1S,2S)-2-(3-(((R or S)-2-isopropyl-1-methylisoindolin-5-yl)amino)-4-oxo-4,5-dihydro-1H-pyrazolo[4,3-c]pyridin-1-yl)cyclohexanecarbonitrile]
IC50 [1]: 0.47 nM
IC50 [2]: 0.45 nM

N#C[C@H]1CCCC[C@@H]1n1nc(Nc2cccc(Cn3cnnc3)c2)c2c(=O)[nH]ccc21 [Example 3-51, (1S,2S)-2-(4-oxo-3-{[3-(4H-1,2,4-triazol-4-ylmethyl)phenyl]amino}-4,5-dihydro-1H-pyrazolo[4,3-c]pyridin-1-yl)cyclohexanecarbonitrile]
IC50 [1]: 0.25 nM
IC50 [2]: 1.2 nM

Cc1cc(Nc2nn([C@@H]3CCCCC[C@H]3C#N)c3cc[nH]c(=O)c23)ccc1C(O)C(F)(F)F (single isomer, unassigned) [Example 15-67, (1R,2R or 1S,2S)-2-[3-({3-methyl-4-[(1S or 1R)-2,2,2-trifluoro-1-hydroxyethyl]phenyl}amino)-4-oxo-4,5-dihydro-1H-pyrazolo[4,3-c]pyridin-1-yl]cycloheptanecarbonitrile]
IC50 [1]: 0.38 nM
IC50 [2]: 3.9 nM

CC1(C)C(=O)c2cc(Nc3nn([C@H]4CCCC[C@@H]4C#N)c4cc[nH]c(=O)c34)ccc2S1(=O)=O [Example 3-171, (1S,2S)-2-{3-[(2,2-dimethyl-1,1-dioxido-3-oxo-2,3-dihydro-1-benzothiophen-5-yl)amino]-4-oxo-4,5-dihydro-1H-pyrazolo[4,3-c]pyridin-1-yl}cyclohexanecarbonitrile]
IC50 [1]: 1.16 nM
IC50 [2]: 5.5 nM

CC1(O)CN([C@H]2CC[C@H](n3nc(Nc4ccc(Cl)cc4)c4c(=O)[nH]ccc43)[C@@H](C#N)C2)C1 [Example 5-22, (1S,2S,5S)-2-(3-((4-chlorophenyl)amino)-4-oxo-4,5-dihydro-1H-pyrazolo[4,3-c]pyridin-1-yl)-5-(3-hydroxy-3-methylazetidin-1-yl)cyclohexanecarbonitrile]
IC50 [1]: 0.24 nM
IC50 [2]: 4 nM

N#C[C@H]1CCCC[C@@H]1n1nc(Nc2ccc3c(c2)CN(C2CCCCC2)C3=O)c2c(=O)[nH]ccc21 [Example 15-34, (1S,2S)-2-{3-[(2-cyclohexyl-1-oxo-2,3-dihydro-1H-isoindol-5-yl)amino]-4-oxo-4,5-dihydro-1H-pyrazolo[4,3-c]pyridin-1-yl}cyclohexanecarbonitrile]
IC50 [1]: 0.082 nM
IC50 [2]: 0.62 nM

C[C@H](NCC(F)(F)F)c1ccc(Nc2nn([C@H]3CCCC[C@@H]3C#N)c3cc[nH]c(=O)c23)cc1 [Example 3-73, (1S,2S)-2-{4-oxo-3-[(4-{(1S)-1-[(2,2,2-trifluoroethyl)amino]ethyl}phenyl)amino]-4,5-dihydro-1H-pyrazolo[4,3-c]pyridin-1-yl}cyclohexanecarbonitrile]
IC50 [1]: 0.26 nM
IC50 [2]: 0.45 nM

Cc1cc(Nc2nn([C@H]3CCCC[C@@H]3C#N)c3cc[nH]c(=O)c23)ccc1C(=O)N1CCCC1 [Example 3-27, (1S,2S)-2-(3-{[3-methyl-4-(pyrrolidin-1-ylcarbonyl)phenyl]amino}-4-oxo-4,5-dihydro-1H-pyrazolo[4,3-c]pyridin-1-yl)cyclohexanecarbonitrile]
IC50 [1]: 0.13 nM
IC50 [2]: 0.2 nM

Cc1cc(Nc2nn([C@H]3CCCC[C@@H]3C#N)c3cc[nH]c(=O)c23)ccc1C(=O)N(C)C [Example 3-67, 4-({1-[(1S,2S)-2-cyanocyclohexyl]-4-oxo-4,5-dihydro-1H-pyrazolo[4,3-c]pyridin-3-yl}amino)-N,N,2-trimethylbenzamide]
IC50 [1]: 0.34 nM
IC50 [2]: 0.43 nM

N#C[C@H]1CCC[C@@H]1n1nc(Nc2ccc(C(N)C(F)(F)F)cc2)c2c(=O)[nH]ccc21 (single isomer, unassigned) [Example 3-103, (1S,2S)-2-[3-({4-[(1R or 1S)-1-amino-2,2,2-trifluoroethyl]phenyl}amino)-4-oxo-4,5-dihydro-1H-pyrazolo[4,3-c]pyridin-1-yl]cyclopentanecarbonitrile]
IC50 [1]: 0.28 nM
IC50 [2]: 0.7 nM

N#C[C@H]1C[C@H](N2CCC2)CC[C@@H]1n1nc(Nc2ccc(C(F)(F)F)cc2)c2c(=O)[nH]ccc21 [Example 5-7, (1S,2S,5R)-5-(azetidin-1-yl)-2-(4-oxo-3-((4-(trifluoromethyl)phenyl)amino)-4,5-dihydro-1H-pyrazolo[4,3-c]pyridin-1-yl)cyclohexanecarbonitrile]
IC50 [1]: 1.4 nM
IC50 [2]: 60 nM

N#C[C@H]1C[C@H](N2CCC2)CC[C@@H]1n1nc(Nc2ccc(Cl)c(F)c2)c2c(=O)[nH]ccc21 [Example 5-3, (1S,2S,5R)-5-(azetidin-1-yl)-2-(3-((4-chloro-3-fluorophenyl)amino)-4-oxo-4,5-dihydro-1H-pyrazolo[4,3-c]pyridin-1-yl)cyclohexanecarbonitrile]
IC50 [1]: 1.7 nM
IC50 [2]: 40 nM

N#Cc1ccc(Nc2nn([C@H]3CCC[C@@H]3C#N)c3cc[nH]c(=O)c23)cc1 [Example 3-112, 4-({1-[(1S,2S)-2-cyanocyclopentyl]-4-oxo-4,5-dihydro-1H-pyrazolo[4,3-c]pyridin-3-yl}amino)benzonitrile]
IC50 [1]: 0.25 nM
IC50 [2]: 1.2 nM

N#C[C@H]1CCCC[C@@H]1n1nc(Nc2ccc(C(O)C(F)(F)F)cc2)c2c(=O)[nH]ccc21 (single isomer, unassigned) [Example 3-8]
IC50 [1]: 0.13 nM
IC50 [2]: 0.82 nM
